The target of test [1] is T1, Glucocorticoid receptor (Homo sapiens, UniProt P04150).
T1 sequence (P04150 whole entry): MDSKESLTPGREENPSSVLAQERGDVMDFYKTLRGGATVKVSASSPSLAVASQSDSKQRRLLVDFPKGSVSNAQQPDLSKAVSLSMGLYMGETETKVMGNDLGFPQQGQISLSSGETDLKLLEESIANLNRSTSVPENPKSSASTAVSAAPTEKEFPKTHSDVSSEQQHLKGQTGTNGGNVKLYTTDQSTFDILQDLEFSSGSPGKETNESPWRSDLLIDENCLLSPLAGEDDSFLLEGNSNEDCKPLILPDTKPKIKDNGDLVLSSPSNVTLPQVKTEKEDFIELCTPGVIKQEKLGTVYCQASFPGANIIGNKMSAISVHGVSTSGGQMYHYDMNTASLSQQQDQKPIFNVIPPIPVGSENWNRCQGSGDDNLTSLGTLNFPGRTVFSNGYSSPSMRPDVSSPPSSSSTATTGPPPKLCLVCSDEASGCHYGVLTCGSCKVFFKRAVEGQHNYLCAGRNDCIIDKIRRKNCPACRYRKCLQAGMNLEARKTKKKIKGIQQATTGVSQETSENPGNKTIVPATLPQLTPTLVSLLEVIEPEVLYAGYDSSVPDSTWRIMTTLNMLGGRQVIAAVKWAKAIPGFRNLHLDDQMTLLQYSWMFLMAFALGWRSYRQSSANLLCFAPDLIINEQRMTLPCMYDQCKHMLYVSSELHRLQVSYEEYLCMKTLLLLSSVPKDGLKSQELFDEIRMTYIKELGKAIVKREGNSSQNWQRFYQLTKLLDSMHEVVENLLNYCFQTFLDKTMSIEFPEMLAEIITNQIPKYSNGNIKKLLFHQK
The class given is functional.
Description: Activity at GR assessed as repression of TNFalpha and IL 1-beta induced E-selectin response

Another test addresses T2, Androgen receptor (Homo sapiens, UniProt P10275).
T2 sequence (P10275 whole entry): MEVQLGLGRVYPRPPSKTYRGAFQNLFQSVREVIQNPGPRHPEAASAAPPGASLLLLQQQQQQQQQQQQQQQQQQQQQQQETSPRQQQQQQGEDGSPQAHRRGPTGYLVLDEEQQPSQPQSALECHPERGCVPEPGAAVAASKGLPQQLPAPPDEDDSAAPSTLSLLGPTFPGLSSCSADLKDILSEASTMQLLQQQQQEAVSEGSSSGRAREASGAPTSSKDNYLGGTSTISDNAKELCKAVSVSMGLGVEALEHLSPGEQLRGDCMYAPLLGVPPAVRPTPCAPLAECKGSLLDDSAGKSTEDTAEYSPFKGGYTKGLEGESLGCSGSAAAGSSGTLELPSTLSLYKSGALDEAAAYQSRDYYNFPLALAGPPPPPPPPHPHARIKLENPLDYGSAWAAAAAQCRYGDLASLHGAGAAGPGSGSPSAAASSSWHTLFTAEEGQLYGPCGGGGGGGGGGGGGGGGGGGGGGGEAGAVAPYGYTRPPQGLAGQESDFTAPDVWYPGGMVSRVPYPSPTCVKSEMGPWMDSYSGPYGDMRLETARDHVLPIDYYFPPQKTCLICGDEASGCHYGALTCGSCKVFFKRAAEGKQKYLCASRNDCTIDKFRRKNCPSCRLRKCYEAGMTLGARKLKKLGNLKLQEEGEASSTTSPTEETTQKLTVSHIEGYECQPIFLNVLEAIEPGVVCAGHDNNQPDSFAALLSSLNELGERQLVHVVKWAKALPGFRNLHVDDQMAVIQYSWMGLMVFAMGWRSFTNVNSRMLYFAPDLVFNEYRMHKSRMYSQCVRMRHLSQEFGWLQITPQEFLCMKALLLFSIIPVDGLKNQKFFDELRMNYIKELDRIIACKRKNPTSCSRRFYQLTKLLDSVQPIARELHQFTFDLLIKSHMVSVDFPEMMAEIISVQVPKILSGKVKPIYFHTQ
As to the kind of experiment: Binding affinity at AR.

Test [2] deals with T3, Mineralocorticoid receptor (Homo sapiens, UniProt P08235).
T3 sequence (P08235 whole entry): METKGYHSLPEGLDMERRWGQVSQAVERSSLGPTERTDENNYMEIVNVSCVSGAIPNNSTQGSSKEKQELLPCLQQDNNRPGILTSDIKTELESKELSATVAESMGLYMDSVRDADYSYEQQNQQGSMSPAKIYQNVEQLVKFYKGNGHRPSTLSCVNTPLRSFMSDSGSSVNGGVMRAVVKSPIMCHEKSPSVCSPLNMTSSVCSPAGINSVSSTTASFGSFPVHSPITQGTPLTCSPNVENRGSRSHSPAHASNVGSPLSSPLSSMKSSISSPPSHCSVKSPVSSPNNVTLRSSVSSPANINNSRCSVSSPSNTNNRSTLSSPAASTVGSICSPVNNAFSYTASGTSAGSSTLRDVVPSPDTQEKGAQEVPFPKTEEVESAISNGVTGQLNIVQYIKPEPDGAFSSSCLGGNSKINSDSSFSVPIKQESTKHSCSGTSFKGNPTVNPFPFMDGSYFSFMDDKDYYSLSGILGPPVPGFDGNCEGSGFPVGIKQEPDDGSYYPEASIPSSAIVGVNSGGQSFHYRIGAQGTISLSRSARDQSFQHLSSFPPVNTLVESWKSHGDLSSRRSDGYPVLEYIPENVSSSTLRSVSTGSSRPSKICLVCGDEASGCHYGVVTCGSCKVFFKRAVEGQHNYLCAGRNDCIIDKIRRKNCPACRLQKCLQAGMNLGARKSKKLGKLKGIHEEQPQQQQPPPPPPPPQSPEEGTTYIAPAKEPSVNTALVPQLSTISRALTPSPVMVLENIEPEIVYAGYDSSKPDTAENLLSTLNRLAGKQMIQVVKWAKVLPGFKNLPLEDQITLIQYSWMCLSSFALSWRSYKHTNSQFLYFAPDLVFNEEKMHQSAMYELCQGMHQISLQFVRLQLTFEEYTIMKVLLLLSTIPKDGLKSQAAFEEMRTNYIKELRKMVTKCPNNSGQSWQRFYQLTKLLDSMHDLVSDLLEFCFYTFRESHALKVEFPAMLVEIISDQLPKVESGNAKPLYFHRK
As to the kind of experiment: Binding affinity at MR.

The target in test [3] is T1, Glucocorticoid receptor. The class given is functional. This is another data set of the same source.
Description: Agonist activity at GR by GRE activation assay
For test [4], the target named is T1, Glucocorticoid receptor. The class given is functional. This is another data set of the same source.
Description: Antagonist activity at GR assessed as inhibition of dexamethasone-induced GRE activation
A further test has as its target T4, Progesterone receptor (Homo sapiens, UniProt P06401).
T4 sequence (P06401 whole entry): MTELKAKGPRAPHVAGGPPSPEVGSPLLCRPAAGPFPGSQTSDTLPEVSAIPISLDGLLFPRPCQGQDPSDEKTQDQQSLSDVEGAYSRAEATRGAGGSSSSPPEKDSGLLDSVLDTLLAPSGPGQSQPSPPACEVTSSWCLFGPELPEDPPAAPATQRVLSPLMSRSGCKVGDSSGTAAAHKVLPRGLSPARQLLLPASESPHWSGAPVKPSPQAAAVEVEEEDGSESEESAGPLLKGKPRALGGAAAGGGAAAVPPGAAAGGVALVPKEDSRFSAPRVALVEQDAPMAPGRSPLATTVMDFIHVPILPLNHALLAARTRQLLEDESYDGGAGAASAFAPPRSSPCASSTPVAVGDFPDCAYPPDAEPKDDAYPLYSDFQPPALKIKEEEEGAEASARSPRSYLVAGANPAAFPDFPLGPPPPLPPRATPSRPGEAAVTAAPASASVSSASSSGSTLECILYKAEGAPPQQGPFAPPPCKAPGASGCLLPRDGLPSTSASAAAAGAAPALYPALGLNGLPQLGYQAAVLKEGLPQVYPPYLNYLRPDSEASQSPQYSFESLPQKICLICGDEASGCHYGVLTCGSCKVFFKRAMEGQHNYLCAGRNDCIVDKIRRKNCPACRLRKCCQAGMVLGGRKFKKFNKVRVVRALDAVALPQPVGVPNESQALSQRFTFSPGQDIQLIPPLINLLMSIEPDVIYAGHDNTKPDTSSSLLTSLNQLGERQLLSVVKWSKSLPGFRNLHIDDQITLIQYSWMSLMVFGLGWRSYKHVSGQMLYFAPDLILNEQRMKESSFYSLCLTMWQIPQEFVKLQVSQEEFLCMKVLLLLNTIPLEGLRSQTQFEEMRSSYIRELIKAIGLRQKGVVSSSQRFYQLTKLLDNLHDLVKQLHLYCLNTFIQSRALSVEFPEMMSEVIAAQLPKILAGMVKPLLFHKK
As to the kind of experiment: Binding affinity at PR.

Test [5] addresses T1, Glucocorticoid receptor.
Description: Displacement of radiolabeled Dexamethasone from glucocorticoid receptor
The subject of the next test is Rattus norvegicus. The test can be described thus: Antiinflammatory activity against carrageenan-induced paw edema in rat assessed as paw volume at 30 mg/kg after 3 hrs. Format: functional, organism-based. More on the design: dose 30 mg/kg. A general note: In the carrageenan paw model, swelling and tenderness develop within hours.

Activity calls are given as the source filed them. The calls are words filed in the database; no cut-off is given here.

On to `COc1c(O)ccc2c1-c1ccc3c(c1/C(=C/c1cccc(O)c1)O2)C(C)=CC(C)(C)N3`, for which the IC50 was found to be 1.1 nM on Glucocorticoid receptor [1] and 4.7 nM against Glucocorticoid receptor [4]. For the same molecule, the inhibition constant (Ki) on Androgen receptor was 910 nM; in test [2], 290 nM; at Progesterone receptor, 750 nM; on Glucocorticoid receptor [5], 1.4 nM. For the same molecule, the EC50 on Glucocorticoid receptor [3] was found to be 1.5 nM.

Turning to `COc1c(O)ccc2c1-c1ccc3c(c1/C(=C/c1ccc(F)cc1CO)O2)C(C)=CC(C)(C)N3`, the inhibitory constant (Ki) at Androgen receptor turned out to be 700 nM; in test [2], 1100 nM; on Progesterone receptor, 970 nM.

For `COCOCc1cc(F)ccc1/C=C1\Oc2ccc(O)c(OC)c2-c2ccc3c(c21)C(C)=CC(C)(C)N3`, the Ki amounted to 630 nM on Androgen receptor, 430 nM in test [2] and 840 nM at Progesterone receptor.

In the case of `COc1c(O)ccc2c1-c1ccc3c(c1/C(=C/c1cc(F)cc4c1OCOC4)O2)C(C)=CC(C)(C)N3`, the result in the test with Rattus norvegicus was Active.

As usually defined, the IC50 is the concentration that inhibits the measured activity by half. By Ki is commonly meant a measure of affinity in units of concentration, obtained from inhibition or displacement. Higher therefore signals a looser hold on the target. Usually EC50 stands for the concentration that produces a half-maximal response. The low end stands for greater potency, the high end for weaker potency.

These data come from ChEMBL document CHEMBL1149550, “5(Z)-benzylidene-1,2-dihydro-9-hydroxy-10-methoxy-2,2,4-trimethyl-5H-1-aza-6-oxa-chrysenes as non-steroidal glucocorticoid receptor modulators” (Bioorg Med Chem Lett, 2007).
